Assay results taken from ChEMBL document CHEMBL3885881, “DrugMatrix”.

Species on record: Rattus norvegicus
Assay type: toxicity, organism-based, Sprague-Dawley
Settings: in vivo, po, route oral GAVAGE, vehicle 100 % SALINE; for ABSOLUTE EOSINOPHIL / ABSOLUTE LYMPHOCYTE / ABSOLUTE MONOCYTE / ABSOLUTE SEGMENTED NEUTROPHIL / BASOPHIL / EOSINOPHIL / ERYTHROCYTE COUNT / HEMATOCRIT / HEMOGLOBIN / LEUKOCYTE COUNT / LYMPHOCYTE / MEAN CORPUSCULAR HEMOGLOBIN / MEAN CORPUSCULAR HEMOGLOBIN CONCENTRATION / MEAN CORPUSCULAR VOLUME / MONOCYTE / NEUTROPHIL / NUCLEATED RED BLOOD CELLS / PLATELET COUNT: tissue Blood; for ALANINE AMINOTRANSFERASE / ALBUMIN / ALKALINE PHOSPHATASE / ASPARTATE AMINOTRANSFERASE / BLOOD UREA NITROGEN / CARBON DIOXIDE / CHLORIDE / CHOLESTEROL / CREATINE PHOSPHOKINASE / CREATININE / GLUCOSE / LACTATE DEHYDROGENASE / LIPASE / PHOSPHORUS / POTASSIUM / SODIUM / TOTAL BILIRUBIN / TOTAL PROTEIN / URIC ACID: tissue Plasma
[1] = 10 mg/kg, 24 h, dose level Low, time 1 day
[2] = 30 mg/kg, 6 h, dose level High, time 0.25 day
[3] = 30 mg/kg, 24 h, dose level High, time 1 day

Description: DrugMatrix - Regimen: Single

For `O=[As][O-].[Na+]` [SODIUM ARSENITE], the “ABSOLUTE EOSINOPHIL” value [1] was 15.17 CELLS/uL, the “ABSOLUTE LYMPHOCYTE” value [1] was 9656.17 CELLS/uL and the “ABSOLUTE MONOCYTE” value [1] was 190.33 CELLS/uL. For the same molecule, the “ABSOLUTE SEGMENTED NEUTROPHIL” value [1] was 505 CELLS/uL, the BASOPHIL [1] was 0% and the EOSINOPHIL [1] was 0.17%. The “ERYTHROCYTE COUNT” value [1] was 4.96 x10E6/uL, the HEMATOCRIT [1] was 32.55% and the HEMOGLOBIN [1] was 12.85 G/DL. For the same molecule, the “LEUKOCYTE COUNT” value [1] was 10.37 x10E3/uL, the LYMPHOCYTE [1] was 93% and the “MEAN CORPUSCULAR HEMOGLOBIN” value [1] was 25.92 pg. The “MEAN CORPUSCULAR HEMOGLOBIN CONCENTRATION” value [1] was 39.47 G/DL, the “MEAN CORPUSCULAR VOLUME” value [1] was 65.67 fL and the MONOCYTE [1] was 1.83%. The NEUTROPHIL [1] was 5%, the “NUCLEATED RED BLOOD CELLS” value [1] was 0 /100WBC and the “PLATELET COUNT” value [1] was 1030.17 x10E3/uL. For the same molecule, the “ALANINE AMINOTRANSFERASE” value [1] was 32.83 u/L, the ALBUMIN [1] was 4.12 G/DL and the “ALKALINE PHOSPHATASE” value [1] was 249.5 u/L. For the same molecule, the “ASPARTATE AMINOTRANSFERASE” value [1] was 61.17 u/L, the “BLOOD UREA NITROGEN” value [1] was 11 mg/dL and the “CARBON DIOXIDE” value [1] was 31.17 mmol/L. The CHLORIDE [1] was 98.33 MEQ/L, the CHOLESTEROL [1] was 81.67 mg/dL and the “CREATINE PHOSPHOKINASE” value [1] was 185.5 u/L. For the same molecule, the CREATININE [1] was 0.18 mg/dL, the GLUCOSE [1] was 153.5 mg/dL and the “LACTATE DEHYDROGENASE” value [1] was 58.67 u/L. It also gave an LIPASE [1] of 9.83 u/L, a PHOSPHORUS [1] of 10.27 mg/dL and a POTASSIUM [1] of 5.57 MEQ/L. For the same molecule, the SODIUM [1] was 143.25 MEQ/L, the “TOTAL BILIRUBIN” value [1] was 0.13 mg/dL and the “TOTAL PROTEIN” value [1] was 5.97 G/DL. The “URIC ACID” value [1] was 0.45 mg/dL, the “ABSOLUTE EOSINOPHIL” value [2] was 50 CELLS/uL and the “ABSOLUTE LYMPHOCYTE” value [2] was 13297 CELLS/uL. The “ABSOLUTE MONOCYTE” value [2] was 256.33 CELLS/uL, the “ABSOLUTE SEGMENTED NEUTROPHIL” value [2] was 2130 CELLS/uL and the BASOPHIL [2] was 0%. The EOSINOPHIL [2] was 0.33%, the “ERYTHROCYTE COUNT” value [2] was 5.91 x10E6/uL and the HEMATOCRIT [2] was 39.97%. For the same molecule, the HEMOGLOBIN [2] was 14.47 G/DL, the “LEUKOCYTE COUNT” value [2] was 15.73 x10E3/uL and the LYMPHOCYTE [2] was 84.67%. For the same molecule, the “MEAN CORPUSCULAR HEMOGLOBIN” value [2] was 24.55 pg, the “MEAN CORPUSCULAR HEMOGLOBIN CONCENTRATION” value [2] was 36.2 G/DL and the “MEAN CORPUSCULAR VOLUME” value [2] was 67.78 fL. The MONOCYTE [2] was 1.67%, the NEUTROPHIL [2] was 13.33% and the “NUCLEATED RED BLOOD CELLS” value [2] was 0 /100WBC. For the same molecule, the “PLATELET COUNT” value [2] was 1100.5 x10E3/uL, the “ALANINE AMINOTRANSFERASE” value [2] was 96.5 u/L and the ALBUMIN [2] was 4.35 G/DL. For the same molecule, the “ALKALINE PHOSPHATASE” value [2] was 225.33 u/L, the “ASPARTATE AMINOTRANSFERASE” value [2] was 192.17 u/L and the “BLOOD UREA NITROGEN” value [2] was 19.33 mg/dL. The “CARBON DIOXIDE” value [2] was 17.5 mmol/L, the CHLORIDE [2] was 99.67 MEQ/L and the CHOLESTEROL [2] was 64.33 mg/dL. The “CREATINE PHOSPHOKINASE” value [2] was 1132 u/L, the CREATININE [2] was 0.23 mg/dL and the GLUCOSE [2] was 205 mg/dL. The “LACTATE DEHYDROGENASE” value [2] was 746.17 u/L, the LIPASE [2] was 8.17 u/L and the PHOSPHORUS [2] was 16.53 mg/dL. The POTASSIUM [2] was 6.95 MEQ/L, the SODIUM [2] was 140.37 MEQ/L and the “TOTAL BILIRUBIN” value [2] was 0.2 mg/dL. The “TOTAL PROTEIN” value [2] was 5.83 G/DL, the “URIC ACID” value [2] was 4.12 mg/dL and the “ABSOLUTE EOSINOPHIL” value [3] was 0 CELLS/uL. The “ABSOLUTE LYMPHOCYTE” value [3] was 12176.83 CELLS/uL, the “ABSOLUTE MONOCYTE” value [3] was 320 CELLS/uL and the “ABSOLUTE SEGMENTED NEUTROPHIL” value [3] was 353.17 CELLS/uL. For the same molecule, the BASOPHIL [3] was 0%, the EOSINOPHIL [3] was 0% and the “ERYTHROCYTE COUNT” value [3] was 5.64 x10E6/uL. The HEMATOCRIT [3] was 36.4%, the HEMOGLOBIN [3] was 14.38 G/DL and the “LEUKOCYTE COUNT” value [3] was 12.85 x10E3/uL. The LYMPHOCYTE [3] was 94.83%, the “MEAN CORPUSCULAR HEMOGLOBIN” value [3] was 25.55 pg and the “MEAN CORPUSCULAR HEMOGLOBIN CONCENTRATION” value [3] was 39.53 G/DL. For the same molecule, the “MEAN CORPUSCULAR VOLUME” value [3] was 64.63 fL, the MONOCYTE [3] was 2.33% and the NEUTROPHIL [3] was 2.83%. The “NUCLEATED RED BLOOD CELLS” value [3] was 0.17 /100WBC, the “PLATELET COUNT” value [3] was 1165.33 x10E3/uL and the “ALANINE AMINOTRANSFERASE” value [3] was 12.67 u/L. The ALBUMIN [3] was 3.88 G/DL, the “ALKALINE PHOSPHATASE” value [3] was 235.5 u/L and the “ASPARTATE AMINOTRANSFERASE” value [3] was 43.83 u/L. The “BLOOD UREA NITROGEN” value [3] was 14.83 mg/dL, the “CARBON DIOXIDE” value [3] was 30.67 mmol/L and the CHLORIDE [3] was 99.5 MEQ/L. For the same molecule, the CHOLESTEROL [3] was 62.17 mg/dL, the “CREATINE PHOSPHOKINASE” value [3] was 219.17 u/L and the CREATININE [3] was 0.2 mg/dL. For the same molecule, the GLUCOSE [3] was 139.5 mg/dL, the “LACTATE DEHYDROGENASE” value [3] was 82 u/L and the LIPASE [3] was 9 u/L. The PHOSPHORUS [3] was 10.38 mg/dL, the POTASSIUM [3] was 5.78 MEQ/L and the SODIUM [3] was 143.5 MEQ/L. For the same molecule, the “TOTAL BILIRUBIN” value [3] was 0.12 mg/dL, the “TOTAL PROTEIN” value [3] was 5.75 G/DL and the “URIC ACID” value [3] was 0.75 mg/dL.
